According to PMC7497403, “Development of Potent PfCLK3 Inhibitors Based on TCMDC-135051 as a New Class of Antimalarials” (Journal of Medicinal Chemistry, 2020):

What was measured:
Assay in all cases: Kinase screen
Type in all cases: biochemical
PRAK = PRAK (Homo sapiens, UniProt Q8IW41)
Description: (§1) With verapamil used as a positive control.
(§2) V. Distribution coefficient (LogD7.4)

CAMKKb = CAMKKb (Homo sapiens, UniProt Q96RR4)
Description: as §1, §2

OSR1 = OSR1 (Homo sapiens, UniProt O95747)
Description: as §1, §2

CDK9-Cyclin T1 = CDK9-Cyclin T1 (Homo sapiens, UniProt P50750)
Chain of CDK9-Cyclin T1 (P50750 whole entry): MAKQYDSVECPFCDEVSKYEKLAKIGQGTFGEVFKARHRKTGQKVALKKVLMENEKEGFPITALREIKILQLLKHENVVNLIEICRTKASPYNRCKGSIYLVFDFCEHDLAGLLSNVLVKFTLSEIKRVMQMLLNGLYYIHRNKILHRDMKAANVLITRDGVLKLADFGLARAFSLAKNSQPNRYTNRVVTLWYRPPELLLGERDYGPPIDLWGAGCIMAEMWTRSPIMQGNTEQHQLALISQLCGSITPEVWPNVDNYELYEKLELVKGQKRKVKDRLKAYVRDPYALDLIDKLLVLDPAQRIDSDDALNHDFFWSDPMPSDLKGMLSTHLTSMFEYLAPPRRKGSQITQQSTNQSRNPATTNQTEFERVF
Chain of CDK9-Cyclin T1 (O60563 whole entry partner): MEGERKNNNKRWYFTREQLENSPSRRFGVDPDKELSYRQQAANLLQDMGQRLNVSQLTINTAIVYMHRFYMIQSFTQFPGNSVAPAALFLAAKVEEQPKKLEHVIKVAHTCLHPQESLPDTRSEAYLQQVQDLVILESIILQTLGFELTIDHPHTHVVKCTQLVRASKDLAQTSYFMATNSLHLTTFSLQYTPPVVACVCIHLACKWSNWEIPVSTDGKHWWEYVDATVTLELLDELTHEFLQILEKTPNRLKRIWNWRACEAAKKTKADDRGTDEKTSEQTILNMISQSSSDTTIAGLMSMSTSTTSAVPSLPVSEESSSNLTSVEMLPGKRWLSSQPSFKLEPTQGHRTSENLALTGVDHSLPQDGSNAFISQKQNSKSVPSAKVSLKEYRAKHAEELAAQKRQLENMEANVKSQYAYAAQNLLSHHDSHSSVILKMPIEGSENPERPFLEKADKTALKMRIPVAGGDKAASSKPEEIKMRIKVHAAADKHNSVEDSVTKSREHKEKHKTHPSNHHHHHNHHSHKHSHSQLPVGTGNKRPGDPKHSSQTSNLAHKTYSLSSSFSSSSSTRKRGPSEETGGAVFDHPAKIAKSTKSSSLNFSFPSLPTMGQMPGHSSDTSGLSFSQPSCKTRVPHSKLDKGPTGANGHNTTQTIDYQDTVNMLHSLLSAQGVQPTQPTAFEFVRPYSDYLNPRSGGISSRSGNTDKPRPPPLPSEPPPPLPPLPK
Description: as §1, §2

S6K1 = S6K1 (Homo sapiens, UniProt P23443)
Description: as §1, §2

EPH-B2 = EPH-B2 (Homo sapiens, UniProt P29323)
Description: as §1, §2

MST4 = MST4 (Homo sapiens, UniProt Q9P289)
Chain of MST4 (Q9P289 whole entry): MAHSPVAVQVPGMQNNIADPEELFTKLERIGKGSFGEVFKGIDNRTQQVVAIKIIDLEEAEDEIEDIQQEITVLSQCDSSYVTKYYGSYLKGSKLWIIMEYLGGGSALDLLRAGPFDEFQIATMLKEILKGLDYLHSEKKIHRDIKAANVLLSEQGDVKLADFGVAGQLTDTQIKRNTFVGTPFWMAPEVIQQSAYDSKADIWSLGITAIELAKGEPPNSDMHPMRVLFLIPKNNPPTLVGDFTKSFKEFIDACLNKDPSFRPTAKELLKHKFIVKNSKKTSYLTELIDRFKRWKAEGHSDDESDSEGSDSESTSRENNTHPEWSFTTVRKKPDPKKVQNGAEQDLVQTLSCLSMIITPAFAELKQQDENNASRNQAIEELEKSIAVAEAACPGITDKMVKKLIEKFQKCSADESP
Description: as §1, §2

EPH-B1 = EPH-B1 (Homo sapiens, UniProt P54762)
Description: as §1, §2

RSK2 = RSK2 (Homo sapiens, UniProt P51812)
Description: as §1, §2

JNK3 = JNK3 (Homo sapiens, UniProt P53779)
Description: as §1, §2

ULK2 = ULK2 (Homo sapiens, UniProt Q8IYT8)
Chain of ULK2 (Q8IYT8 whole entry): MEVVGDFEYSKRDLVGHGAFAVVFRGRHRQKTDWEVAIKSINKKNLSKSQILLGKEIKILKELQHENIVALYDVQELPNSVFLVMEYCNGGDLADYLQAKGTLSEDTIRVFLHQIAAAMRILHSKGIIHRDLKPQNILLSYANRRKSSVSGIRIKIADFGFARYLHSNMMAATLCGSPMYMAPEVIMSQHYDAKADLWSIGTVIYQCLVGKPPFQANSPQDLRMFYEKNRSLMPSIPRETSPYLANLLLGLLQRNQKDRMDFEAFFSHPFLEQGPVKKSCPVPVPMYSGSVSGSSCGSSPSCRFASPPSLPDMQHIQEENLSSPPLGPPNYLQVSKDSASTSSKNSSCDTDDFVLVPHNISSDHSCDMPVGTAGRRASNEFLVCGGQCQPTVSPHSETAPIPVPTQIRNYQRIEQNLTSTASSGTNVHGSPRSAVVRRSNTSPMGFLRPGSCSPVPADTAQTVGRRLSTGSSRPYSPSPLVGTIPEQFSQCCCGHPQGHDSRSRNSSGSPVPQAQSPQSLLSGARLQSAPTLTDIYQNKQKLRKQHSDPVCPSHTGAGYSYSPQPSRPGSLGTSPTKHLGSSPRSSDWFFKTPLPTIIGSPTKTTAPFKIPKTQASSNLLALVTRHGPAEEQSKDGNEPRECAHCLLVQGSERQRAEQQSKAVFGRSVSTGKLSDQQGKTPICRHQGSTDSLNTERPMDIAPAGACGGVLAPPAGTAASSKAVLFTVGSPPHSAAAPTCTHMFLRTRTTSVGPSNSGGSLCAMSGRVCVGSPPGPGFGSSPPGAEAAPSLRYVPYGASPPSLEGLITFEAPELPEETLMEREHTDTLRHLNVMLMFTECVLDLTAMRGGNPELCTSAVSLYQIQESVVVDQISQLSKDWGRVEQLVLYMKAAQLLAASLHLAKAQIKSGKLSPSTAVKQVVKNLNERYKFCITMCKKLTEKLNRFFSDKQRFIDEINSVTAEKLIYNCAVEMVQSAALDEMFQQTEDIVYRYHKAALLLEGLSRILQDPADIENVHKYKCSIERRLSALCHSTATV
Description: as §1, §2

SRPK1 = SRPK1 (Homo sapiens, UniProt Q96SB4)
Description: as §1, §2

PIM3 = PIM3 (Homo sapiens, UniProt Q86V86)
Description: as §1, §2

NEK2a = NEK2a (Homo sapiens, UniProt P51955)
Description: as §1, §2

PHK = PHK (Homo sapiens, UniProt Q16816)
Chain of PHK (Q16816 whole entry): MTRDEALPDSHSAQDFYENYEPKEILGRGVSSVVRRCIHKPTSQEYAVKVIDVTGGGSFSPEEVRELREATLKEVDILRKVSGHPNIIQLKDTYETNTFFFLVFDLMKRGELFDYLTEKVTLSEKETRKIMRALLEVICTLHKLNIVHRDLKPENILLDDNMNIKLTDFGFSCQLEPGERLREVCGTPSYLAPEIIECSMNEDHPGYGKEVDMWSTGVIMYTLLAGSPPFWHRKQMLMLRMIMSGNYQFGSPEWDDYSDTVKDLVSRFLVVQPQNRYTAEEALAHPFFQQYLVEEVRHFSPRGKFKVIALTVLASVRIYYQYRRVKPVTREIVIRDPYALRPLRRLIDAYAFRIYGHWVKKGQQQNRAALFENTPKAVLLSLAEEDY
Description: as §1, §2

TTK = TTK (Homo sapiens, UniProt P33981)
Description: as §1, §2

CAMK1 = CAMK1 (Homo sapiens, UniProt Q14012)
Description: as §1, §2

ERK5 = ERK5 (Homo sapiens, UniProt Q13164)
Description: as §1, §2

FGF-R1 = FGF-R1 (Homo sapiens, UniProt P11362)
Description: as §1, §2

CK1γ2 = CK1γ2 (Homo sapiens, UniProt P78368)
Description: as §1, §2

ZAP70 = ZAP70 (Homo sapiens, UniProt P43403)
Description: as §1, §2

PAK6 = PAK6 (Homo sapiens, UniProt Q9NQU5)
Description: as §1, §2

ABL = ABL (Homo sapiens, UniProt P00519)
Description: as §1, §2

RIPK2 = RIPK2 (Homo sapiens, UniProt O43353)
Description: as §1, §2

PAK5 = PAK5 (Homo sapiens, UniProt Q9P286)
Description: as §1, §2

MINK1 = MINK1 (Homo sapiens, UniProt Q8N4C8)
Description: as §1, §2

ERK8 = ERK8 (Homo sapiens, UniProt Q8TD08)
Description: as §1, §2

MNK2 = MNK2 (Homo sapiens, UniProt Q9HBH9)
Description: as §1, §2

IRAK4 = IRAK4 (Homo sapiens, UniProt Q9NWZ3)
Chain of IRAK4 (Q9NWZ3 whole entry): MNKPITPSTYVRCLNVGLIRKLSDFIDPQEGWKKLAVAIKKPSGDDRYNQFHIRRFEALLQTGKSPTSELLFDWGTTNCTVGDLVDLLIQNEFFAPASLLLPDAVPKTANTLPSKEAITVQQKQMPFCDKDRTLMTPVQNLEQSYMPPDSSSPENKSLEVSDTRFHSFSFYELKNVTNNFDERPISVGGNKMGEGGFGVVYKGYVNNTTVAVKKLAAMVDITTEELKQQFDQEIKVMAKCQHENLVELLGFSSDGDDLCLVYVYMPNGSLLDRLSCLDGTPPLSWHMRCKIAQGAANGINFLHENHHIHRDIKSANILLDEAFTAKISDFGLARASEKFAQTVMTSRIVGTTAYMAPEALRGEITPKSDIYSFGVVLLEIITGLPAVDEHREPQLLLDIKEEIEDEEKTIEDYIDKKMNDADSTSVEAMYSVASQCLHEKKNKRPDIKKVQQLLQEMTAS
Description: as §1, §2

TBK1 = TBK1 (Homo sapiens, UniProt Q9UHD2)
Description: as §1, §2

TAK1 = TAK1 (Homo sapiens, UniProt O43318)
Description: as §1, §2

IGF-1R = IGF-1R (Homo sapiens, UniProt P08069)
Description: as §1, §2

Src = Src (Homo sapiens, UniProt P12931)
Description: as §1, §2

PRK2 = PRK2 (Homo sapiens, UniProt Q16513)
Description: as §1, §2

PKCγ = PKCγ (Homo sapiens, UniProt P05129)
Description: as §1, §2

MLK3 = MLK3 (Homo sapiens, UniProt Q16584)
Description: as §1, §2

TrkA = TrkA (Homo sapiens, UniProt P04629)
Description: as §1, §2

HIPK2 = HIPK2 (Homo sapiens, UniProt Q9H2X6)
Description: as §1, §2

DDR2 = DDR2 (Homo sapiens, UniProt Q16832)
Description: as §1, §2

GCK = GCK (Homo sapiens, UniProt Q12851)
Description: as §1, §2

PAK4 = PAK4 (Homo sapiens, UniProt O96013)
Description: as §1, §2

VEG-FR = VEG-FR (Homo sapiens, UniProt P17948)
Description: as §1, §2

MKK6 = MKK6 (Homo sapiens, UniProt P52564)
Description: as §1, §2

MAPKAP-K3 = MAPKAP-K3 (Homo sapiens, UniProt Q16644)
Description: as §1, §2

TTBK1 = TTBK1 (Homo sapiens, UniProt Q5TCY1)
Chain of TTBK1 (Q5TCY1 whole entry): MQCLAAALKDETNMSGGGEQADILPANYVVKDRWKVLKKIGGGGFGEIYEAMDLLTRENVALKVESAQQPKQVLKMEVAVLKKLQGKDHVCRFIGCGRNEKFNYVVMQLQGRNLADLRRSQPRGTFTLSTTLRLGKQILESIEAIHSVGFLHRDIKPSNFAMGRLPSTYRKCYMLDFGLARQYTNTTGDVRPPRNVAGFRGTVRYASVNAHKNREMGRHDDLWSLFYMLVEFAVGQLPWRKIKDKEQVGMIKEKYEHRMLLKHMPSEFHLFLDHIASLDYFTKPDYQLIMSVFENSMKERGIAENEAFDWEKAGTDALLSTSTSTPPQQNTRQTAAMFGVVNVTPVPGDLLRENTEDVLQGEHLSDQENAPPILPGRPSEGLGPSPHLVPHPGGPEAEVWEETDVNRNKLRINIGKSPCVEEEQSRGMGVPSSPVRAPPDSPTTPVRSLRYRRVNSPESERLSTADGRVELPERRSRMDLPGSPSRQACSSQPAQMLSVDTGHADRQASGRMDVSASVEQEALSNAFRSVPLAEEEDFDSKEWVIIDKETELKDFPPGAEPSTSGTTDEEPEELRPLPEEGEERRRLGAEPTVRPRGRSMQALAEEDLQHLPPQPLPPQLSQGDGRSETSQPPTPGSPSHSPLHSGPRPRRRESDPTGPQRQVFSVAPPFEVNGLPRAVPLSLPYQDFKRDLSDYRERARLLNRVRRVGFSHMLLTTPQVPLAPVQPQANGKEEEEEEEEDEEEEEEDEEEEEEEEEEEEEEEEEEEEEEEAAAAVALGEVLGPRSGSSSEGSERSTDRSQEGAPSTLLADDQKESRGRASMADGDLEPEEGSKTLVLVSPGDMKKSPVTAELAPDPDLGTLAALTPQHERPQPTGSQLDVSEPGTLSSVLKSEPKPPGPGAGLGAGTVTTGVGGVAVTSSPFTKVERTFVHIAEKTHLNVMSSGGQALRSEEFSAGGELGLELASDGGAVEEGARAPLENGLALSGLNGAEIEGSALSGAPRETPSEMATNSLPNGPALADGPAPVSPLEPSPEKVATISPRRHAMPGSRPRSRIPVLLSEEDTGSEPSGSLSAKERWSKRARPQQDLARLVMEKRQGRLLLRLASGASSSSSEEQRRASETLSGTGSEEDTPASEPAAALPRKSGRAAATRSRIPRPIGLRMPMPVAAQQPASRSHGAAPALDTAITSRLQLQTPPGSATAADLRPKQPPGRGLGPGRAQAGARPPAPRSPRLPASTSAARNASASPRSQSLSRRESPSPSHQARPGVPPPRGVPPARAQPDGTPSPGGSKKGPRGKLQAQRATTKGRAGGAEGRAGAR
Description: as §1, §2

PDK1 = PDK1 (Homo sapiens, UniProt O15530)
Description: as §1, §2

## CCN(CC)Cc1ccc(OC)c(-c2cc3c(-c4ccc(C(=O)O)c(C(C)C)c4)ccnc3[nH]2)c1 [analogue 1, 4-(2-(5-((Diethylamino)methyl)-2-methoxyphenyl)-1H-pyrrolo[2,3-b]pyridin-4-yl)-2-isopropylbenzoic Acid]
PRAK
  activity at 1 µM: 88%
CAMKKb
  activity at 1 µM: 2%
OSR1
  activity at 1 µM: 38%
CDK9-Cyclin T1
  activity at 1 µM: 2%
S6K1
  activity at 1 µM: 87%
EPH-B2
  activity at 1 µM: 100%
MST4
  activity at 1 µM: 59%
EPH-B1
  activity at 1 µM: 124%
RSK2
  activity at 1 µM: 87%
JNK3
  activity at 1 µM: 52%
ULK2
  activity at 1 µM: 96%
SRPK1
  activity at 1 µM: 92%
PIM3
  activity at 1 µM: 80%
NEK2a
  activity at 1 µM: 87%
PHK
  activity at 1 µM: 10%
TTK
  activity at 1 µM: 86%
CAMK1
  activity at 1 µM: 86%
ERK5
  activity at 1 µM: 54%
FGF-R1
  activity at 1 µM: 50%
CK1γ2
  activity at 1 µM: 93%
ZAP70
  activity at 1 µM: 59%
PAK6
  activity at 1 µM: 92%
ABL
  activity at 1 µM: 59%
RIPK2
  activity at 1 µM: 16%
PAK5
  activity at 1 µM: 75%
MINK1
  activity at 1 µM: 44%
ERK8
  activity at 1 µM: 55%
MNK2
  activity at 1 µM: 29%
IRAK4
  activity at 1 µM: 24%
TBK1
  activity at 1 µM: 66%
TAK1
  activity at 1 µM: 25%
IGF-1R
  activity at 1 µM: 51%
Src
  activity at 1 µM: 42%
PRK2
  activity at 1 µM: 48%
PKCγ
  activity at 1 µM: 114%
MLK3
  activity at 1 µM: 107%
TrkA
  activity at 1 µM: 87%
HIPK2
  activity at 1 µM: 56%
DDR2
  activity at 1 µM: 21%
GCK
  activity at 1 µM: 31%
PAK4
  activity at 1 µM: 105%
VEG-FR
  activity at 1 µM: 80%
MKK6
  activity at 1 µM: 100%
MAPKAP-K3
  activity at 1 µM: 110%
TTBK1
  activity at 1 µM: 102%
PDK1
  activity at 1 µM: 111%
